Assay results reported in patent US20260184713A1, “KINASE INHIBITORS” (The United States of America, as represented by the …, priority 2022, published 2026).
pIC50: −log10 of the molar value. Read-outs that look alike come from different tables or passages of the source.

How the values were obtained:
Format in all cases: biochemical
RAF1 = biological target: T1, RAF1 (Homo sapiens, UniProt P04049, Y340D/Y341D); assay: HOTSPOT radiometric kinase assay; details: 10 μM ATP
T1 construct: purchased Reaction Biology Corp

CDK2 = biological target: T2, CDK2 (Homo sapiens, UniProt P24941); assay: HOTSPOT radiometric kinase assay; details: 10 μM ATP
T2 construct: purchased Reaction Biology Corp

CLK1 = biological target: T3, CLK1 (Homo sapiens, UniProt P49759); assay: HOTSPOT radiometric kinase assay; details: 2 μM, 10 μM ATP
T3 construct: purchased Reaction Biology Corp

PKG2 = biological target: T4, PKG2 (Homo sapiens, UniProt Q13237); assay: HOTSPOT radiometric kinase assay; details: 10 μM ATP
T4 construct: purchased Reaction Biology Corp

DYRK2 = biological target: T5, DYRK2 (Homo sapiens, UniProt Q92630); assay: HOTSPOT radiometric kinase assay
T5 construct: purchased Reaction Biology Corp
T5 sequence (Q92630 1-601): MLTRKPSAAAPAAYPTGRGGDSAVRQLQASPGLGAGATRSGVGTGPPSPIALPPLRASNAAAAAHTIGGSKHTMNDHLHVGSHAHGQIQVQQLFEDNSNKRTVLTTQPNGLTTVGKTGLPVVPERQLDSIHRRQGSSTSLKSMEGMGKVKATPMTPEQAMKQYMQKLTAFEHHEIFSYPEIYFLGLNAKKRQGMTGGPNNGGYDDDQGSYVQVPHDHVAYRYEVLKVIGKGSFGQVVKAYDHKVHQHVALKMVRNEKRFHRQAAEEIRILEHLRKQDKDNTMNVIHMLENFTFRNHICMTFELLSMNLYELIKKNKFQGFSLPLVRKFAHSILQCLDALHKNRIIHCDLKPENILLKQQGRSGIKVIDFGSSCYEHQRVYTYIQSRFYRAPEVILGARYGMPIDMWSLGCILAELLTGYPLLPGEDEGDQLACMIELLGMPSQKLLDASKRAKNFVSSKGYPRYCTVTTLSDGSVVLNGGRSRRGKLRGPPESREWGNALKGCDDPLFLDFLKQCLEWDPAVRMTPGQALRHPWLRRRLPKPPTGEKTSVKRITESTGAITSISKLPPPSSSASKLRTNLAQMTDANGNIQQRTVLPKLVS

CLK4 = biological target: T6, CLK4 (Homo sapiens, UniProt Q9HAZ1); assay: HOTSPOT radiometric kinase assay
T6 construct: purchased Reaction Biology Corp
T6 sequence (Q9HAZ1 whole entry): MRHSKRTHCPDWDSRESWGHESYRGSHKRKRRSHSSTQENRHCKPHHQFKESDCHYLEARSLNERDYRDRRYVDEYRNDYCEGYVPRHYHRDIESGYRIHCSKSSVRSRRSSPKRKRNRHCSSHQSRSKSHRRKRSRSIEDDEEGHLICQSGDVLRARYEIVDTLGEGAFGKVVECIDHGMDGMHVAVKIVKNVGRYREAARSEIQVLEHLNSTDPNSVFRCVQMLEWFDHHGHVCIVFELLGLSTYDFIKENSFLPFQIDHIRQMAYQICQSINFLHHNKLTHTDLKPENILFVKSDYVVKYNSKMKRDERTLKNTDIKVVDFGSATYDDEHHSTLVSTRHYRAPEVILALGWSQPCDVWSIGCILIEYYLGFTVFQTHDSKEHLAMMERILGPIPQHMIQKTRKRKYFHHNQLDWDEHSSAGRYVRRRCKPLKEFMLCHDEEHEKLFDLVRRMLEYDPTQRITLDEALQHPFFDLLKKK

STK39/STLK3 = biological target: T7, STK39/STLK3 (Homo sapiens, UniProt Q9UEW8); assay: HOTSPOT radiometric kinase assay; details: 2 μM, 10 μM ATP
T7 construct: purchased Reaction Biology Corp

Luciferase = assay: luciferase assay without PKA (Luciferase Only)
Text: . Therefore, a competitive kinetic study was further conducted to investigate how 1 interacted with the PKA protein. […]. Thus, all the results supported that 1 was likely to function as an ATP-competitive inhibitor by direct interacting with the PKA catalytic unit (see FIGS. 2A-2B).

MSK2 = biological target: T8, MSK2 (Homo sapiens, UniProt O75676); assay: HOTSPOT radiometric kinase assay; details: 10 μM ATP
T8 construct: purchased Reaction Biology Corp
T8 sequence (O75676 whole entry): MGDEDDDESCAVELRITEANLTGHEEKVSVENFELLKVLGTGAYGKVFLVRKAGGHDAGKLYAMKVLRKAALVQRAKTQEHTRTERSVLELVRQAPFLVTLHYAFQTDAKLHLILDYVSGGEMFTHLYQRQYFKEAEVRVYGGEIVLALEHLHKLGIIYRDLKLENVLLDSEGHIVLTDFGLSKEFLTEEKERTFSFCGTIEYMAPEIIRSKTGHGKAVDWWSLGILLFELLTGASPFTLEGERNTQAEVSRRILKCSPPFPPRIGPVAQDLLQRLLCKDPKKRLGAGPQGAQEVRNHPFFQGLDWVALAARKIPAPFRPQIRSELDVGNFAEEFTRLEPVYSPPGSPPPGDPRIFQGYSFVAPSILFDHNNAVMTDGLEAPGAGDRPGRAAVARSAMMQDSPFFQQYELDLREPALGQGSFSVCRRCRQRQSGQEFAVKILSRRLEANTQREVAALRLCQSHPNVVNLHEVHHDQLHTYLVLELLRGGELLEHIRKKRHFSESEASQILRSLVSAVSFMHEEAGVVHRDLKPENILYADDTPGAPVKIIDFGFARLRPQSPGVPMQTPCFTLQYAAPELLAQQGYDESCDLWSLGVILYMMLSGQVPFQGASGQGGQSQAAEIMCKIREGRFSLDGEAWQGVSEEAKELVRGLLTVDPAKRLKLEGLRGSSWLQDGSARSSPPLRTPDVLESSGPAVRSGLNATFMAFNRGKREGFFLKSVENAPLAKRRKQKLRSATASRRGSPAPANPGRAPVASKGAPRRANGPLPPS

BMPR2 = biological target: T9, BMPR2 (Homo sapiens, UniProt Q13873); assay: HOTSPOT radiometric kinase assay; details: 10 μM ATP
T9 construct: purchased Reaction Biology Corp

DCAMKL1 = biological target: T10, DCAMKL1 (Homo sapiens, UniProt O15075); assay: HOTSPOT radiometric kinase assay; details: 10 μM ATP
T10 construct: purchased Reaction Biology Corp

PKCv/PKD3 = biological target: T11, PKCv/PKD3 (Homo sapiens, UniProt O94806); assay: HOTSPOT radiometric kinase assay
T11 construct: purchased Reaction Biology Corp
T11 sequence (O94806 1-890): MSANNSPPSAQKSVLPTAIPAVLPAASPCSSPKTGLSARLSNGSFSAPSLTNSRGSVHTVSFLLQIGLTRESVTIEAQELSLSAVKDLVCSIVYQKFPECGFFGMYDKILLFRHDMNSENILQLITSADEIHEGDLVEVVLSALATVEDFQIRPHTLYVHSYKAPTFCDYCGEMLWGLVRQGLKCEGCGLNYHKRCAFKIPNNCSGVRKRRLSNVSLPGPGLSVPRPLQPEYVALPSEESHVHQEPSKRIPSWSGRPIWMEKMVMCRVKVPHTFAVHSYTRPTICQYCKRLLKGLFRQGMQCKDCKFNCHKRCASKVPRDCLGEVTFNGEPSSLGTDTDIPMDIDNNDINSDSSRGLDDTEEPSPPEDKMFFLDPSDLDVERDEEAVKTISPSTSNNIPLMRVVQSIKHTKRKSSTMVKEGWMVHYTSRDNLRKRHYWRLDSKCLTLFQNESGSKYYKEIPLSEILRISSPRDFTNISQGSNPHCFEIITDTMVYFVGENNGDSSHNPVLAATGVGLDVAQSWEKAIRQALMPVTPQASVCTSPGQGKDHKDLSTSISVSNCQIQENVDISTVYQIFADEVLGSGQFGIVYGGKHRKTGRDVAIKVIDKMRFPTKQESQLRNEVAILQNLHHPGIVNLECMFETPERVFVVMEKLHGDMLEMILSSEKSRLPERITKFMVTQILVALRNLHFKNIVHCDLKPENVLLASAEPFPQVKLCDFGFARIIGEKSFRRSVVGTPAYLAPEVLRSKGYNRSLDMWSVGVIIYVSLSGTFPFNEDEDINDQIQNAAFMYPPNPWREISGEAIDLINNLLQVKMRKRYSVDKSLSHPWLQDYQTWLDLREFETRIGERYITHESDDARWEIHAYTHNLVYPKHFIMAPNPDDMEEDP

BRAF = biological target: T12, BRAF (Homo sapiens, UniProt P15056); assay: HOTSPOT radiometric kinase assay; details: 10 μM ATP
T12 construct: purchased Reaction Biology Corp
T12 sequence (P15056 whole entry): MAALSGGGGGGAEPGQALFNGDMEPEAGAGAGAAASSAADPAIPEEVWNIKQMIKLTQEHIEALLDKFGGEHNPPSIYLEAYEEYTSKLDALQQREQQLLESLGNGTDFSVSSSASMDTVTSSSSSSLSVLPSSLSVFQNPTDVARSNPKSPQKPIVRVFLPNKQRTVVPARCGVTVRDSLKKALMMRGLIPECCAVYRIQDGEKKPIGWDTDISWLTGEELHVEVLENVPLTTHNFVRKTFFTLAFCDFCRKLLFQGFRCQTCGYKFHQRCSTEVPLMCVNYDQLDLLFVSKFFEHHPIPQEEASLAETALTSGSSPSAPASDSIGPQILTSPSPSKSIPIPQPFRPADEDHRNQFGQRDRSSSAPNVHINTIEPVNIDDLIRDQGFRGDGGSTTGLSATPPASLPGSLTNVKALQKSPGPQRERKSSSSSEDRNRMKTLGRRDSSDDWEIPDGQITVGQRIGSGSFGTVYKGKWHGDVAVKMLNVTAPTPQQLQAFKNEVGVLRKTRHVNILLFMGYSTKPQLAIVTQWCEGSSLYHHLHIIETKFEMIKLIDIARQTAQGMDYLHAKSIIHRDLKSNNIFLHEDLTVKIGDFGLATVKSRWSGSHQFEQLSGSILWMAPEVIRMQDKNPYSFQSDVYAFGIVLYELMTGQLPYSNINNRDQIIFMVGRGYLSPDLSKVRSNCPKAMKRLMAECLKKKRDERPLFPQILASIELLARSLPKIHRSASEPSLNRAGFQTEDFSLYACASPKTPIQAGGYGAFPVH

NLK = biological target: T13, NLK (Homo sapiens, UniProt Q9UBE8); assay: HOTSPOT radiometric kinase assay; details: 10 μM ATP
T13 construct: purchased Reaction Biology Corp

PKCη = biological target: T14, PKCη (Homo sapiens, UniProt P24723); assay: HOTSPOT radiometric kinase assay
T14 construct: purchased Reaction Biology Corp
T14 sequence (P24723 whole entry): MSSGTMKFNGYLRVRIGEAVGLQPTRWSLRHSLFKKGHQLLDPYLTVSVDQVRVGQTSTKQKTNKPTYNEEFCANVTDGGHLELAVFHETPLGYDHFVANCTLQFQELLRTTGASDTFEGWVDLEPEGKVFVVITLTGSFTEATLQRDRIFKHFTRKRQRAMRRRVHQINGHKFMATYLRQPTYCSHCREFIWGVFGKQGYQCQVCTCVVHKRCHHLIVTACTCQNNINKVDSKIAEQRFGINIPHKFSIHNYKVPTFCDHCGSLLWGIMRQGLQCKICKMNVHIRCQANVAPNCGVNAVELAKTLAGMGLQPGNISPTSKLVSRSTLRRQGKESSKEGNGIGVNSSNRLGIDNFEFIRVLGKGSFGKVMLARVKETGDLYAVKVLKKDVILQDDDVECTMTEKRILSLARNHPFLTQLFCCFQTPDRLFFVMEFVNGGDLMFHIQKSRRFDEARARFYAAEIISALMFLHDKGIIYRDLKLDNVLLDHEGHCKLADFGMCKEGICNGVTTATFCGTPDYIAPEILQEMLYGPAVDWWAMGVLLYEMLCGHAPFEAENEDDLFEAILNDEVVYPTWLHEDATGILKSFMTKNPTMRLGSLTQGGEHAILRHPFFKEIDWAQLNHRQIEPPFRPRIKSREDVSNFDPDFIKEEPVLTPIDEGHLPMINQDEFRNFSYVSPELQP

WNK1 = biological target: T15, WNK1 (Homo sapiens, UniProt Q9H4A3); assay: HOTSPOT radiometric kinase assay; details: 10 μM ATP
T15 construct: purchased Reaction Biology Corp
T15 sequence (Q9H4A3 whole entry): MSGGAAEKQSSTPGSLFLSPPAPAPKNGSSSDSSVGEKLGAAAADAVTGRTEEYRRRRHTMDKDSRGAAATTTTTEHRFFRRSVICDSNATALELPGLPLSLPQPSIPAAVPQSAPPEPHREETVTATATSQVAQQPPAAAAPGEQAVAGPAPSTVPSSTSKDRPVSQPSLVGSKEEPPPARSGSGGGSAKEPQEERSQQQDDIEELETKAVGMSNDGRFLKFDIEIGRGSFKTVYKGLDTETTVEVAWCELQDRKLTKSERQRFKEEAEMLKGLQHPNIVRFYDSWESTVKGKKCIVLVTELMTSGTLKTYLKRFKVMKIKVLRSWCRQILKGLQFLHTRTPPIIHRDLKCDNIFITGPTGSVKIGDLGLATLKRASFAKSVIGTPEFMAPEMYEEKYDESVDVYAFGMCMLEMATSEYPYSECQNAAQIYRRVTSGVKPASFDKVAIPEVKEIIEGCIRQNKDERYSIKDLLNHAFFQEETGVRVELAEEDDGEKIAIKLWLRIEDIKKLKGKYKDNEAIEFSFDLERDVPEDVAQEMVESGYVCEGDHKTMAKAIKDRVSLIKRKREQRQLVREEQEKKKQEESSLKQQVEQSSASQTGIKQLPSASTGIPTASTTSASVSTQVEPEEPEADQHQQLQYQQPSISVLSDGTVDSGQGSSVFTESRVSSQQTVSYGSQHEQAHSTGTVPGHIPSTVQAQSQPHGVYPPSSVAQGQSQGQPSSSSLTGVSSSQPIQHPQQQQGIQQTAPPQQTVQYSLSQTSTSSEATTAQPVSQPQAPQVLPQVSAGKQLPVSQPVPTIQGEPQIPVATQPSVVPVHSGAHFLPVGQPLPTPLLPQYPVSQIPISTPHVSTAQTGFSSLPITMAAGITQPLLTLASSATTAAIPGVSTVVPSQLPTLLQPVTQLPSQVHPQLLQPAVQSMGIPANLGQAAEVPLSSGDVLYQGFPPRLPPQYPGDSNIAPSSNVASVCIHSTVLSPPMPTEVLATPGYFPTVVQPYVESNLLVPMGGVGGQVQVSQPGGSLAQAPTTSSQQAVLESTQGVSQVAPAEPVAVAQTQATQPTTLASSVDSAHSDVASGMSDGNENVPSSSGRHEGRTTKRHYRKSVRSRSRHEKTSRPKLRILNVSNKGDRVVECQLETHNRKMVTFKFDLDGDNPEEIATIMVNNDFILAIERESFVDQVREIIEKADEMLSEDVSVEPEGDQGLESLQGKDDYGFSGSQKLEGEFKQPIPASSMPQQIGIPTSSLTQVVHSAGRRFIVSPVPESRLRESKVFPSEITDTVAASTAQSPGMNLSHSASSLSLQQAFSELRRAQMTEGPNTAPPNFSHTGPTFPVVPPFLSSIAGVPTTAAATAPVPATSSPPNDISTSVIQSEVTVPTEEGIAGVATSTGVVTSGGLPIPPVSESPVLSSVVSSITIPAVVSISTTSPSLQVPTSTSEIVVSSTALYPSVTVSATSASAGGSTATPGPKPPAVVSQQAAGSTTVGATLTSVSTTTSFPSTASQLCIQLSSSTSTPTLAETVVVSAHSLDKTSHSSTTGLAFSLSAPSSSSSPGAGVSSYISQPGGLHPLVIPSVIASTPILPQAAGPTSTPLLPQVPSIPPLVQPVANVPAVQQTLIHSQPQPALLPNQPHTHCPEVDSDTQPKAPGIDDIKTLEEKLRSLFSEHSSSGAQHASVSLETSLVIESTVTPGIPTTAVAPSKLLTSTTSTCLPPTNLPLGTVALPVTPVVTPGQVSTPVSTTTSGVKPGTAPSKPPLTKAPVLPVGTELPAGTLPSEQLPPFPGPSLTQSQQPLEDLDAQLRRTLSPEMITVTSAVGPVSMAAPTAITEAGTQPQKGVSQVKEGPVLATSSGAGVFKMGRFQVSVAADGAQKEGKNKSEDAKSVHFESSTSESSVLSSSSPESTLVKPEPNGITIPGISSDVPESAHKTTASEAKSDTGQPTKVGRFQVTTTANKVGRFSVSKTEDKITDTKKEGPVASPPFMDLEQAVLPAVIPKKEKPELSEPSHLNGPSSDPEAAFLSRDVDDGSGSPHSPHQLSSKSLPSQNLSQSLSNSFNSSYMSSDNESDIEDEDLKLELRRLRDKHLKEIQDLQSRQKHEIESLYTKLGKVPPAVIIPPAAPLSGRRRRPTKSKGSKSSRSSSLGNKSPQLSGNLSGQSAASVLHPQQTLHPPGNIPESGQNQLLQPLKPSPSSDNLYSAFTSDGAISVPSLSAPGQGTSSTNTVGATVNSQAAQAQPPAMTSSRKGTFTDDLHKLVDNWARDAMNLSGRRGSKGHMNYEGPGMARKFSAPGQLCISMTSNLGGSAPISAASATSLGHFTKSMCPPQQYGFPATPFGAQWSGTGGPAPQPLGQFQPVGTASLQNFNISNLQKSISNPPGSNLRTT

## Cn1cncc1C1=CN(c2ncnc3nc[nH]c23)CCS1 [Compound 1, Aplithianine A]
RAF1; 50 nM
  inhibition at 0.05 µM: 21.6%
RAF1; 2 μM
  inhibition at 2 µM: 47%
CDK2; 50 nM
  inhibition at 0.05 µM: 12.6%
CDK2; 2 μM
  inhibition at 2 µM: 49.1%
CLK1
  inhibition at 2 µM: 97.3%
PKG2
  inhibition at 2 µM: 99.4%
DYRK2; 50 nM, 10 μM ATP
  inhibition at 0.05 µM: 20.6%
DYRK2; 2 μM, 10 μM ATP
  inhibition at 2 µM: 91.2%
DYRK2; 10 μM ATP, read-out: DYRK2 IC50
  pIC50: 6.85
DYRK2; IC50 (kinase)/IC50 (PKG1a)
  DYRK2 Differential (as compared to PKG1a): 13.27
DYRK2; Table 4 dose-response, read-out: DYRK2 IC50 Values
  pIC50: 6.82
CLK4; 50 nM, 10 μM ATP
  inhibition at 0.05 µM: 27.1%
CLK4; 2 μM, 10 μM ATP
  inhibition at 2 µM: 84.7%
CLK4; 10 μM ATP, read-out: CLK4 IC50
  pIC50: 6.82
CLK4; IC50 (kinase)/IC50 (PKG1a)
  CLK4 Differential (as compared to PKG1a): 13.49
CLK4; Table 4 dose-response, read-out: CLK4 IC50 Values
  pIC50: 6.81
STK39/STLK3
  inhibition at 2 µM: 87.3%
Luciferase
  activity when PKA was absent in the assay: no activity was observed
MSK2; 50 nM
  inhibition at 0.05 µM: 13.3%
MSK2; 2 μM
  inhibition at 2 µM: 75.5%
BMPR2; 50 nM
  inhibition at 0.05 µM: 21.3%
BMPR2; 2 μM
  inhibition at 2 µM: 74%
DCAMKL1; 50 nM
  inhibition at 0.05 µM: 12.8%
DCAMKL1; 2 μM
  inhibition at 2 µM: 14.2%
PKCv/PKD3; 50 nM, 10 μM ATP
  inhibition at 0.05 µM: 25%
PKCv/PKD3; 2 μM, 10 μM ATP
  inhibition at 2 µM: 88.9%
PKCv/PKD3; 10 μM ATP, read-out: PKCv/PKD3 IC50
  pIC50: 6.89
PKCv/PKD3; IC50 (kinase)/IC50 (PKG1a)
  PKCnu Differential (as compared to PKG1a): 11.92
PKCv/PKD3; Table 4 dose-response, read-out: PKCnu IC50 Values
  pIC50: 6.87
BRAF; 50 nM
  inhibition at 0.05 µM: 12.9%
BRAF; 2 μM
  inhibition at 2 µM: 35.1%
NLK; 50 nM
  inhibition at 0.05 µM: 19.6%
NLK; 2 μM
  inhibition at 2 µM: 43%
PKCη; 50 nM, 10 μM ATP
  inhibition at 0.05 µM: 15.8%
PKCη; 2 μM, 10 μM ATP
  inhibition at 2 µM: 83.6%
PKCη; 10 μM ATP, read-out: PKCη IC50
  pIC50: 6.69
PKCη; IC50 (kinase)/IC50 (PKG1a)
  PKCeta Differential (as compared to PKG1a): 16.08
PKCη; Table 4 dose-response, read-out: PKCeta IC50 Values
  pIC50: 6.74
WNK1; 50 nM
  inhibition at 0.05 µM: 14.1%
WNK1; 2 μM
  inhibition at 2 µM: 10.7%
